Source: ChEMBL document CHEMBL1201862, “PubChem BioAssay data set” (2004)
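96-well plates; 48 h exposure; 5 concentrations. Endpoints by linear interpolation between flanking doses. Not reached: highest tested concentration assigned. Abbreviation: GI50, concentration required for 50% inhibition of growth.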 Activity calls are given as the source filed them. Cut-off read from the data, not from the text of the source: active = GI50 up to about 1.1 µM and inactive = higher.

Assays:
Assay in all cases: inhibition of tumour cell growth, NCI panel, 48 h
KM-20L2 = test system: KM-20L2
M19-MEL = test system: M19-MEL
DMS-114 = test system: DMS-114
LXFL 529 = test system: LXFL 529
DLD-1 = test system: DLD-1
HOP-18 = test system: HOP-18
SNB-78 = test system: SNB-78
DMS-273 = test system: DMS-273
RXF 631 = test system: RXF 631

Measured: GI50

O=C(CSc1ncnc2[nH]cnc12)c1ccccc1
inactive: KM-20L2 > 100 µM | M19-MEL > 100 µM | DMS-114 > 100 µM | LXFL 529 > 100 µM | DLD-1 > 100 µM | HOP-18 > 100 µM | SNB-78 > 100 µM | DMS-273 > 100 µM

COC1OC(CO)C(O)C(NC(=O)N(C)N=O)C1O (stereo not given)
inactive: KM-20L2 > 100 µM | M19-MEL > 100 µM | DMS-114 > 100 µM | LXFL 529 > 100 µM | DLD-1 > 100 µM | HOP-18 > 100 µM | SNB-78 > 100 µM | DMS-273 > 100 µM

Cn1nc(-c2ccccc2)c(C(=O)/C=C/c2ccc(Cl)cc2)c(N2CCOCC2)c1=O
inactive: RXF 631 4.79 µM | KM-20L2 3.45 µM | M19-MEL 5.24 µM | DMS-114 2.78 µM | LXFL 529 2.92 µM | DLD-1 2.96 µM | HOP-18 4.48 µM | DMS-273 3.3 µM

COc1ccc(C(=O)C(C(=O)C(=O)Nc2nc3ccc(OC)cc3s2)c2ccc(OC)cc2)cc1 (stereo not given)
inactive: RXF 631 > 100 µM | KM-20L2 > 100 µM | M19-MEL > 100 µM | DMS-114 90.2 µM | LXFL 529 > 100 µM | DLD-1 > 100 µM | HOP-18 90.6 µM | SNB-78 > 100 µM | DMS-273 > 100 µM

CN(C(=O)C12C3C4C1C1C2C3C41C(=O)N(C)C(C)(C)C)C(C)(C)C (stereo not given)
inactive: RXF 631 > 50 µM | KM-20L2 > 50 µM | M19-MEL > 50 µM | DMS-114 > 50 µM | LXFL 529 > 50 µM | SNB-78 > 50 µM | DMS-273 > 50 µM

CC1(C)CC(/C=C2/OC(=O)c3ccccc32)=C(C(N)=O)C(=O)O1
inactive: KM-20L2 > 100 µM | M19-MEL > 100 µM | DMS-114 > 100 µM | LXFL 529 > 100 µM | DLD-1 > 100 µM | SNB-78 > 100 µM | DMS-273 > 100 µM

COc1ccc(N2C(=O)[C@@H](N=[N+]=[N-])[C@@H]2[C@H]2COC(C)(C)O2)cc1
inactive: KM-20L2 > 100 µM | M19-MEL > 100 µM | DMS-114 > 100 µM | LXFL 529 > 100 µM | HOP-18 > 100 µM | SNB-78 > 100 µM | DMS-273 > 100 µM

CN(C)CCNC(=O)c1cccc2nc3cc(Cl)ccc3nc12
inactive: KM-20L2 2.81 µM | M19-MEL 1.8 µM | DMS-114 1.83 µM | LXFL 529 2.14 µM | DLD-1 2.68 µM | HOP-18 17.5 µM | SNB-78 2.65 µM | DMS-273 1.98 µM

c1ccc2cc3[s+]snc3cc2c1
inactive: RXF 631 > 100 µM | KM-20L2 > 100 µM | M19-MEL > 100 µM | LXFL 529 85.1 µM | DLD-1 > 100 µM | HOP-18 > 100 µM | SNB-78 > 100 µM | DMS-273 > 100 µM

N#CC(C(=O)CCCC(=O)Nc1ccc(Cl)cc1Cl)c1ccc(Cl)cc1 (stereo not given)
inactive: RXF 631 > 100 µM | KM-20L2 > 100 µM | LXFL 529 > 100 µM | DLD-1 > 100 µM | HOP-18 31.7 µM | SNB-78 > 100 µM | DMS-273 > 100 µM

CC(N)Cc1ccc(C(=O)Cl)cc1 (stereo not given)
inactive: RXF 631 > 100 µM | KM-20L2 > 100 µM | M19-MEL > 100 µM | DMS-114 > 100 µM | LXFL 529 > 100 µM | DLD-1 > 100 µM

CN(C)C(=S)/N=c1\ss/c(=N\S(=O)(=O)c2ccccc2)n1C
inactive: KM-20L2 > 100 µM | M19-MEL > 100 µM | DMS-114 > 100 µM | LXFL 529 > 100 µM | DLD-1 > 100 µM | HOP-18 > 100 µM | SNB-78 > 100 µM | DMS-273 > 100 µM

Nc1ccn(CCOC(=O)c2ccccc2)c(=O)n1
inactive: RXF 631 > 100 µM | KM-20L2 > 100 µM | LXFL 529 > 100 µM | DLD-1 > 100 µM | HOP-18 > 100 µM | SNB-78 > 100 µM | DMS-273 > 100 µM

Nc1ncnc2c1ncn2C1OC(CSCC(F)(F)F)C(O)C1O (stereo not given)
inactive: KM-20L2 > 100 µM | M19-MEL > 100 µM | LXFL 529 > 100 µM | DLD-1 > 100 µM | HOP-18 > 100 µM | SNB-78 > 100 µM | DMS-273 > 100 µM

CCCCOCc1cc(CN2CCN(C)CC2)c(O)c2ncccc12
inactive: RXF 631 53.7 µM | KM-20L2 26.4 µM | M19-MEL 26.7 µM | DMS-114 6.38 µM | LXFL 529 11.9 µM | DLD-1 8.05 µM | HOP-18 5.35 µM | SNB-78 31 µM | DMS-273 12.1 µM

CCOC(=O)N1C(c2ccccc2)C=CC(c2ccccc2)N1C(=O)OCC (stereo not given)
inactive: KM-20L2 > 100 µM | M19-MEL > 100 µM | DMS-114 > 100 µM | DLD-1 > 100 µM | HOP-18 > 100 µM | SNB-78 > 100 µM

OCCc1cnco1
inactive: KM-20L2 > 100 µM | M19-MEL > 100 µM | DMS-114 > 100 µM | LXFL 529 > 100 µM | DLD-1 > 100 µM | HOP-18 > 100 µM | SNB-78 > 100 µM | DMS-273 63.8 µM

O=C(O)CNc1c2ccccc2[n+]([O-])c2ccccc12
inactive: RXF 631 > 100 µM | KM-20L2 > 100 µM | M19-MEL > 100 µM | DMS-114 47.9 µM | LXFL 529 34.6 µM | DLD-1 87.3 µM | HOP-18 36.1 µM | SNB-78 > 100 µM | DMS-273 81.8 µM

CC(C)(C)c1ccnc(/N=C2\N/C(=N\c3cc(C(C)(C)C)ccn3)c3ccccc32)c1
inactive: KM-20L2 13.9 µM | M19-MEL 33.1 µM | LXFL 529 41.9 µM | DLD-1 21.9 µM | HOP-18 18.3 µM | SNB-78 19.9 µM | DMS-273 > 10 µM

CN1C(=O)C2C3C=C4c5ccccc5N(c5ccccc5)C4(C2C1=O)[C@H]1C(=O)N(C)C(=O)[C@@H]31 (stereo not given in full)
inactive: KM-20L2 > 100 µM | M19-MEL > 100 µM | DMS-114 66.4 µM | LXFL 529 > 100 µM | DLD-1 > 100 µM

CC1(C)C2CCC13CS(=O)(=O)N1O[C@]13C(=O)O2 (stereo not given in full)
inactive: RXF 631 > 100 µM | KM-20L2 > 100 µM | M19-MEL > 100 µM | DMS-114 > 100 µM | LXFL 529 > 100 µM | DLD-1 > 100 µM | HOP-18 > 100 µM | SNB-78 > 100 µM

[N-]=[N+]=NC(CBr)c1cn([C@H]2C[C@H](O)[C@@H](CO)O2)c(=O)[nH]c1=O (stereo not given in full)
inactive: KM-20L2 > 100 µM | M19-MEL > 100 µM | DMS-114 > 100 µM | LXFL 529 > 100 µM | DLD-1 > 100 µM | HOP-18 1.99 µM | SNB-78 > 100 µM | DMS-273 > 100 µM
